Values of other authors in EP4674947A1, “YEAST MUTANT STRAIN WITH HIGH GLYCOLIPID PRODUCTIVITY” (KAO CORPORATION, priority 2024, dated 2025).

Settings: decreased from 72.8 mN/m; sophorolipid produced by Starmerella bombicola

Substance: Sophorolipid
- surface tension of water decreased to: 30 mN/m
